Results as given in paper PMC11956013, “Structure–Activity Relationships and Evaluation of 2-(Heteroaryl-cycloalkyl)-1H-indoles as Tauopathy Positron Emission Tomography Radiotracers” (Journal of Medicinal Chemistry, 2025).
Where “and” joins values, the source holds several entries; their conditions need not be identical. Equal values may be shown once. Read-outs that look alike come from different tables or passages of the source. Each block holds one compound with its values, some of them ahead of it.

How the values were obtained:
[1] = molecular target: CYP2C19 (Homo sapiens, UniProt P33261); conditions: In Vitro Metabolism; HLM, Omeprazole substrate; reference compound
[2] = molecular target: MT1 (ML1A) (h) (Homo sapiens, UniProt P48039); assay: Eurofins panel: MT1 (ML1A) (h) (agonist radioligand); assay type: binding; parameters: purchased Eurofins (CNS SafetyScreen panel, contract assay) assay 1538; conditions: reference compound
[3] = molecular target: M3 (h) (Homo sapiens, UniProt P20309); conditions: Specific binding; reference compound
[4] = molecular target: M4 (h) (Homo sapiens, UniProt P08173); assay: M4 (h) (antagonist radioligand), Eurofins assay 96; conditions: Specific binding; reference compound
Sequence of M4 (h) (P08173 whole entry): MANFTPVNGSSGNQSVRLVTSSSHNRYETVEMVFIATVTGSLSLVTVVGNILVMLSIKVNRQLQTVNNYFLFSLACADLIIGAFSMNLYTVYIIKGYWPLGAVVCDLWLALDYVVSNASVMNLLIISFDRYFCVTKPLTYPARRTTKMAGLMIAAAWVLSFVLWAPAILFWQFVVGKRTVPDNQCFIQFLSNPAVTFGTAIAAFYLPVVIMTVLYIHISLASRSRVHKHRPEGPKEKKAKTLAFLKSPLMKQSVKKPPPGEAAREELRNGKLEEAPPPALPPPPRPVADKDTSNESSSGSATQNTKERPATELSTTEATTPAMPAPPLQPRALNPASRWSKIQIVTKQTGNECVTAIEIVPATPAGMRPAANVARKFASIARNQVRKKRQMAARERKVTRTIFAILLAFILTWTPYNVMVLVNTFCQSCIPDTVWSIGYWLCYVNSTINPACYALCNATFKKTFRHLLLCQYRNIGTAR

[5] = molecular target: T1, M5 (h) (Homo sapiens, UniProt P08912); assay: M5 (h) (antagonist radioligand), Eurofins assay 97; conditions: Specific binding, reference compound
T1 sequence (P08912 1-532): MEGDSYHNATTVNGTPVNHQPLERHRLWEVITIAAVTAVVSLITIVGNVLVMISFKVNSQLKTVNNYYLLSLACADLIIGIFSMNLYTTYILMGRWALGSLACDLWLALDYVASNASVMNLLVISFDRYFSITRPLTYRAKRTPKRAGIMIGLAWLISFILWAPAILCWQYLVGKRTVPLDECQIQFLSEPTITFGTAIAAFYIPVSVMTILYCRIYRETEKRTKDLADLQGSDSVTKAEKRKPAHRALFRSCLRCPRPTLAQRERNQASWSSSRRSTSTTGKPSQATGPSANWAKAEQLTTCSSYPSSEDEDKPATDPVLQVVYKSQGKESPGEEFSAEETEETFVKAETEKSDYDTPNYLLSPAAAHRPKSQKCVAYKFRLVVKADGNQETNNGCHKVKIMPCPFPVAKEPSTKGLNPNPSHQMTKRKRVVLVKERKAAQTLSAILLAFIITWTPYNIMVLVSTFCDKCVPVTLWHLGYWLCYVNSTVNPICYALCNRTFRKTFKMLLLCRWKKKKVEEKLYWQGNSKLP

[6] = molecular target: D1 (h) (Homo sapiens, UniProt P21728); conditions: Specific binding; reference compound
Sequence of D1 (h) (P21728 whole entry): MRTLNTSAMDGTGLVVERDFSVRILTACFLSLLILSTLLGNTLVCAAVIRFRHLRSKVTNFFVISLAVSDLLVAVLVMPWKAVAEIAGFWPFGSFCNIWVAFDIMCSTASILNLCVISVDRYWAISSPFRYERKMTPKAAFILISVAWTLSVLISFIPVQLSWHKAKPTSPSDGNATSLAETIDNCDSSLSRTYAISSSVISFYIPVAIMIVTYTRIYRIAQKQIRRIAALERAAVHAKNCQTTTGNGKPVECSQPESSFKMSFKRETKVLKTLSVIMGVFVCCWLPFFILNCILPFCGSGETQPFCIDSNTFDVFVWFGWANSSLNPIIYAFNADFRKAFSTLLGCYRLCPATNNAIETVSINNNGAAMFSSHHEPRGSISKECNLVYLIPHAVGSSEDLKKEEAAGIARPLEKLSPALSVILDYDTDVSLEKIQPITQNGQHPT

[7] = molecular target: D2L (h) (Homo sapiens, UniProt P14416); conditions: Specific binding; reference compound
[8] = molecular target: M2 (h) (Homo sapiens, UniProt P08172); conditions: Specific binding; reference compound
[9] = molecular target: ATPase (Na+/K+); assay: Eurofins panel: ATPase (Na+/K+) enzymatic activity; assay type: biochemical; conditions: reference compound, read-out: Concurrent IC50, Enzymatic activity
[10] = molecular target: GR (h) (Homo sapiens, UniProt P04150); conditions: Specific binding; reference compound
[11] = molecular target: CYP2D6 (Homo sapiens, UniProt P10635); conditions: In Vitro Metabolism; HLM, Dextromethorphan substrate; reference compound
[12] = molecular target: Non-Selective Rat Glycine Ion Channel (Rattus norvegicus, UniProt P07727); assay: Non-Selective Rat Glycine Ion Channel Strychnine Mass Spectrometry Binding Assay, Cerep
[13] = molecular target: Adenosine Guinea Pig Transporter (Cavia porcellus, UniProt H0V4R7); assay: Adenosine Guinea Pig Transporter Mass Spectrometry Binding (Antagonist Ligand) Assay, Cerep; conditions: reference compound
Sequence of Adenosine Guinea Pig Transporter (H0V4R7 1-461): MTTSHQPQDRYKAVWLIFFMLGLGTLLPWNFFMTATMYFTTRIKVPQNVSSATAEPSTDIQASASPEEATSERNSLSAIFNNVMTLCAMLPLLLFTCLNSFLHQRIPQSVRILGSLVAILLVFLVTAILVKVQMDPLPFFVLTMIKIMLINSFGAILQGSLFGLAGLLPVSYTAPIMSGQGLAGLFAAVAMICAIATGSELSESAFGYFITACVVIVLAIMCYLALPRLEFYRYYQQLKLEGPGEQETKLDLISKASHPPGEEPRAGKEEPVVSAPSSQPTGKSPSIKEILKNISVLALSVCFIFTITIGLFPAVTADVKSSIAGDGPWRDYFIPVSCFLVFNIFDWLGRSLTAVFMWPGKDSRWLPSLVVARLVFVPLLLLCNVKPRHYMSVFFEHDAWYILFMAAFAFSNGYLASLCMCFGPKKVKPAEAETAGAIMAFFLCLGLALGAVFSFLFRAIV

[14] = molecular target: COMT (catechol- O-methyl transferase); assay: COMT (catechol- O-methyl transferase), Eurofins assay 457; assay type: biochemical; conditions: Enzymatic activity; reference compound; read-out: Concurrent IC50
[15] = molecular target: T2, aggregated tau (mixed 3R/4R-tau) in AD brain tissue homogenates (Homo sapiens, UniProt P10636); assay: In vitro competition (Ki) assay versus [^3H]7, AD brain tissue homogenate; assay type: binding; conditions: radioligand [^3H]7 ∼1 nM
Target sequence in this assay (P10636 623-695 limits assumed): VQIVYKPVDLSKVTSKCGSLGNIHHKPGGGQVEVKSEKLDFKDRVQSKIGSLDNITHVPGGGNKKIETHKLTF

[16] = molecular target: T3, aggregated tau (4R-tau) in PSP brain tissue homogenates (Homo sapiens, UniProt P10636); assay: In vitro competition (Ki) assay versus [^3H]7, PSP brain tissue homogenate; assay type: binding; conditions: radioligand [^3H]7 ∼1 nM
T3 construct: from tissue
T3 sequence (P10636 1-441 isoform P10636-8): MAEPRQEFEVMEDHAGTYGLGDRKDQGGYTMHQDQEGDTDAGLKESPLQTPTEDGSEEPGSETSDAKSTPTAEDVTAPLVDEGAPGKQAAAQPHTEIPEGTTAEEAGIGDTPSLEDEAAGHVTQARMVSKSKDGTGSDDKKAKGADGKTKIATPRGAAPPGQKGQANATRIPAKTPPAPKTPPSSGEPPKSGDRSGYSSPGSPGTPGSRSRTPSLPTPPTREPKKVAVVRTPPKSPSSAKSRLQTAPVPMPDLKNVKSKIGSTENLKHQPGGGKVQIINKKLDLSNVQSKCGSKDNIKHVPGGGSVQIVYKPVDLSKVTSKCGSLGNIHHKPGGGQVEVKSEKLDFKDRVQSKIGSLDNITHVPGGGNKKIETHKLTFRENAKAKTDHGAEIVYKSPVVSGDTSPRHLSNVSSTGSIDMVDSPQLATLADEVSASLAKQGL

[17] = molecular target: T2, aggregated tau (mixed 3R/4R-tau) in AD brain tissue homogenates; assay: In vitro competition (Ki) assay versus [^3H]8, AD brain tissue homogenate; assay type: binding; conditions: radioligand [^3H]8 ∼1 nM
Target sequence in this assay (P10636 623-708 limits assumed): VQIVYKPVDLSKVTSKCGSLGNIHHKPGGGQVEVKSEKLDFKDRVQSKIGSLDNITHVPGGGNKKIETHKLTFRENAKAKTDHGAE

[18] = molecular target: T3, aggregated tau (4R-tau) in PSP brain tissue homogenates; assay: In vitro competition (Ki) assay versus [^3H]8, PSP brain tissue homogenate; assay type: binding; conditions: radioligand [^3H]8 ∼1 nM
[19] = molecular target: T2, aggregated tau (mixed 3R/4R-tau) in AD brain tissue homogenates; assay: In vitro competition (Ki) assay versus [^3H]75, AD brain tissue homogenate; assay type: binding; conditions: AD brain tissue homogenate; radioligand [^3H]75; n = 3, mean ± SD
Target sequence in this assay (P10636 623-695 limits assumed): as the sequence (P10636 623-695 limits assumed) above

[20] = molecular target: T3, aggregated tau (4R-tau) in PSP brain tissue homogenates; assay: In vitro competition (Ki) assay versus [^3H]75, PSP brain tissue homogenate; assay type: binding; conditions: PSP brain tissue homogenate; radioligand [^3H]75; n = 3, mean ± SD
[21] = molecular target: T4, aggregated tau (3R-tau) in PiD brain tissue homogenates (Homo sapiens, UniProt P10636); assay: In vitro competition (Ki) assay versus [^3H]75, PiD brain tissue homogenate; assay type: binding; conditions: PiD brain tissue homogenate; radioligand [^3H]75; n = 3, mean ± SD
T4 construct: or only 3R-tau aggregates (PiD middle frontal gyrus); from tissue; host or cells: post-mortem human PiD brain, middle frontal gyrus homogenate
T4 sequence (P10636 1-410 isoform P10636-5): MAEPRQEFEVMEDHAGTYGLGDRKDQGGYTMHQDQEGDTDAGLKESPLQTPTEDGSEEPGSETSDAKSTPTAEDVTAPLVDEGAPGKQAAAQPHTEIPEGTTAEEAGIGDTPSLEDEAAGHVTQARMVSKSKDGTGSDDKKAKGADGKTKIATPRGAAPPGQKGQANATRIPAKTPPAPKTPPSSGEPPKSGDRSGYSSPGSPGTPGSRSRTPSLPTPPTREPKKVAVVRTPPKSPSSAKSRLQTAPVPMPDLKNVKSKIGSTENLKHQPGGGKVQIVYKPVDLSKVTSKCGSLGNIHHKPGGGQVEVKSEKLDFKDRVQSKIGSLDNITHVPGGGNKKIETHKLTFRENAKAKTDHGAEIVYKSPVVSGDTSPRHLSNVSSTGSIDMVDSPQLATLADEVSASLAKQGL

[22] = molecular target: T5, aggregated tau (4R-tau) in CBD brain tissue homogenates (Homo sapiens, UniProt P10636); conditions: read-out: Ki versus [^3H]7, CBD tissue; CBD brain tissue homogenate; radioligand [^3H]7 ∼1 nM
T5 sequence (P10636 1-441 isoform P10636-8): as the sequence (P10636 1-441 isoform P10636-8) above

[23] = molecular target: T5, aggregated tau (4R-tau) in CBD brain tissue homogenates; conditions: read-out: Ki versus [^3H]8, CBD tissue; CBD brain tissue homogenate; radioligand [^3H]8 ∼1 nM
[24] = molecular target: T2, aggregated tau (mixed 3R/4R-tau) in AD brain tissue homogenates; parameters: method as in earlier work; conditions: AD brain tissue homogenate; radioligand [^3H]3; read-out: Ki versus [^3H]3, AD tissue; cited from earlier work
Target sequence in this assay (P10636 623-695 limits assumed): as the sequence (P10636 623-695 limits assumed) above

[25] = molecular target: T3, aggregated tau (4R-tau) in PSP brain tissue homogenates; parameters: method as in earlier work; conditions: PSP brain tissue homogenate; radioligand [^3H]3; read-out: Ki versus [^3H]3, PSP tissue; cited from earlier work
[26] = molecular target: T5, aggregated tau (4R-tau) in CBD brain tissue homogenates; assay: In vitro competition (Ki) assay versus [^3H]75, CBD brain tissue homogenate; assay type: binding; parameters: from tissue; host or cells: post-mortem human CBD brain, middle frontal gyrus homogenate; conditions: CBD brain tissue homogenate; radioligand [^3H]75; n = 3, mean ± SD
[27] = molecular target: T5, aggregated tau (4R-tau) in CBD brain tissue homogenates; parameters: from tissue; host or cells: post-mortem human CBD brain, middle frontal gyrus homogenate; method as in earlier work; conditions: CBD brain tissue homogenate; radioligand [^3H]3; read-out: Ki versus [^3H]3, CBD tissue; cited from earlier work
[28] = molecular target: CYP1A2 (Homo sapiens, UniProt P05177); conditions: In Vitro Metabolism; HLM, Tacrine substrate; reference compound
[29] = molecular target: Ca2+ channel (L, dihydropyridine site) (Rattus norvegicus, UniProt P22002); assay: Eurofins panel: Ca2+ channel (L, dihydropyridine site) (antagonist radioligand); conditions: reference compound
Sequence of Ca2+ channel (L, dihydropyridine site) (P22002 whole entry): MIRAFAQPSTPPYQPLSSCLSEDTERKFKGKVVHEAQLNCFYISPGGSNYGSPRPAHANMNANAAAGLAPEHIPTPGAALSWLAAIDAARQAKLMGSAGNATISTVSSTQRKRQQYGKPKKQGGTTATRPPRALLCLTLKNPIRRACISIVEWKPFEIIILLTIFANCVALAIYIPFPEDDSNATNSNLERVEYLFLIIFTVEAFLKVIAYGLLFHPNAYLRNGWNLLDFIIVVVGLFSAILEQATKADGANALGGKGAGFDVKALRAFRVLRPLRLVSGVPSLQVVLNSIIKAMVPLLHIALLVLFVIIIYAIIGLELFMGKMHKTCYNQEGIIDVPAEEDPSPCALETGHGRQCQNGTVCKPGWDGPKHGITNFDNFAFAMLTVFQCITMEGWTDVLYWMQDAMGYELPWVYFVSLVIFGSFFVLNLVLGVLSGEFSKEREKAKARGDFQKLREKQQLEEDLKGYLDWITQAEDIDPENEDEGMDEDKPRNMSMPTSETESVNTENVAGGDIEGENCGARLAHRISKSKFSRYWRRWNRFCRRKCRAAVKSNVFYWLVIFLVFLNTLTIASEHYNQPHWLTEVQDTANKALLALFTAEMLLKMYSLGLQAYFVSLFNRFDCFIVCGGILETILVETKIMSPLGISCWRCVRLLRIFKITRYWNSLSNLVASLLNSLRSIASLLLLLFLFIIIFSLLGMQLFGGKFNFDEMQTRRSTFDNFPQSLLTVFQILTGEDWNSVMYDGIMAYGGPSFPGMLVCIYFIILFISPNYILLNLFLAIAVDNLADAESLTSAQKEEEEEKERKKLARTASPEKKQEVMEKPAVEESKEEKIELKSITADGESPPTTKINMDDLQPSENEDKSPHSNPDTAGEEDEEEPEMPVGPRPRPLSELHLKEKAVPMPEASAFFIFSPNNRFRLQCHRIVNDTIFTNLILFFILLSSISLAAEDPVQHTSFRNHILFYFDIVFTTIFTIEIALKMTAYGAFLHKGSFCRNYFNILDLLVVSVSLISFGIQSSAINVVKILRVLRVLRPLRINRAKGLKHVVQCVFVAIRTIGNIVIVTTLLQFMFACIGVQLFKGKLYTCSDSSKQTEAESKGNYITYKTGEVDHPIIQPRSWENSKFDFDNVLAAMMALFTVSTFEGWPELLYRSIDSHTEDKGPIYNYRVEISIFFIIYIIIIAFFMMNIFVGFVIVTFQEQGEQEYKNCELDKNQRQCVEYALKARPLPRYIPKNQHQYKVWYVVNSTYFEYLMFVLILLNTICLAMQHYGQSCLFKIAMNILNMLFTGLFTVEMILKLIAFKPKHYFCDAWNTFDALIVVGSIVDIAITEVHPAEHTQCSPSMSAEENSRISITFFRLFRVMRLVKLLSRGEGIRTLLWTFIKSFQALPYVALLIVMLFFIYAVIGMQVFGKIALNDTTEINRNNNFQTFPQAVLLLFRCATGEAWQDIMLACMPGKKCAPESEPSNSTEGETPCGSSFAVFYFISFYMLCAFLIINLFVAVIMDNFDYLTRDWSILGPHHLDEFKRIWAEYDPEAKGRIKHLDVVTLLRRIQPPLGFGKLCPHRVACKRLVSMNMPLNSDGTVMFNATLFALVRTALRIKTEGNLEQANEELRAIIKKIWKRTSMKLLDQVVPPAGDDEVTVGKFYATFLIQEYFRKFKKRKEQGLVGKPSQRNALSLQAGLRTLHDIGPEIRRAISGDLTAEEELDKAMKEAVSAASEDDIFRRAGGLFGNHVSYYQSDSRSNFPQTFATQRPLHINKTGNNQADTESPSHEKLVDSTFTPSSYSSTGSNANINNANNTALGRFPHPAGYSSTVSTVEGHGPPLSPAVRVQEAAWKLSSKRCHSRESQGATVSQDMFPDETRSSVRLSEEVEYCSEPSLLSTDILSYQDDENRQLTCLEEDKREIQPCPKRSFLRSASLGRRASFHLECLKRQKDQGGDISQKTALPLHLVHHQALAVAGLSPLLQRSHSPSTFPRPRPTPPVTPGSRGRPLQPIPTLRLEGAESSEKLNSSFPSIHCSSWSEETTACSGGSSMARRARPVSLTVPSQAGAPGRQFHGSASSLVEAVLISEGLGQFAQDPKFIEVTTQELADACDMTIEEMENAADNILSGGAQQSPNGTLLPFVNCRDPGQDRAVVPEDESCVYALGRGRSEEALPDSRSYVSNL

[30] = molecular target: T2, aggregated tau (mixed 3R/4R-tau) in AD brain tissue homogenates; assay: In vitro competition (Ki) assay versus [^3H]3, AD brain tissue homogenate; assay type: binding; conditions: radioligand [^3H]3 ∼1 nM
Target sequence in this assay (P10636 623-695 limits assumed): as the sequence (P10636 623-695 limits assumed) above

[31] = molecular target: T3, aggregated tau (4R-tau) in PSP brain tissue homogenates; assay: In vitro competition (Ki) assay versus [^3H]3, PSP brain tissue homogenate; assay type: binding; conditions: radioligand [^3H]3 ∼1 nM
[32] = molecular target: T5, aggregated tau (4R-tau) in CBD brain tissue homogenates; assay: biochemical
[33] = molecular target: T5, aggregated tau (4R-tau) in CBD brain tissue homogenates; assay: In vitro competition (Ki) assay versus [^3H]3, CBD brain tissue homogenate; assay type: binding; parameters: from tissue; host or cells: post-mortem human CBD brain, middle frontal gyrus homogenate; conditions: radioligand [^3H]3 ∼1 nM

Compound: CCN(CC)CC#CCOC(=O)C(O)(c1ccccc1)C1CCCCC1 (stereo not drawn) [Oxybutynin]
- nH [1]: 0.7474

Compound: COc1ccc2[nH]cc(CCNC(C)=O)c2c1 [melatonin]
- nH, Specific binding [2]: 1.177

Compound: C[N+]1(C)CCC(OC(=O)C(c2ccccc2)c2ccccc2)CC1.[I-] [Compound 4-DAMP]
- nH [3]: 1.577
- nH [4]: 1.959
- nH [5]: 1.178
- IC50 ([5]; read-out: Concurrent IC50): 2.35 nM
- Ki ([5]; read-out: Concurrent Ki): 1.17 nM

Compound: CN1CCc2cc(Cl)c(O)cc2[C@@H](c2ccccc2)C1 [SCH 23390]
- nH [6]: 1.03

Compound: CC(C)(C)[C@]1(O)CCN2C[C@H]3c4ccccc4CCc4cccc(c43)[C@@H]2C1 [butaclamol]
- nH [7]: 0.9951

- nH [8]: 1.382
Compound: COc1ccccc1CNCCCCCCNCCCCCCCCNCCCCCCNCc1ccccc1OC [methoctramine]

Compound: C[C@@H]1O[C@@H](O[C@H]2C[C@@H](O)[C@]3(CO)[C@H]4[C@H](O)C[C@]5(C)[C@@H](C6=CC(=O)OC6)CC[C@]5(O)[C@@H]4CC[C@]3(O)C2)[C@H](O)[C@H](O)[C@H]1O [ouabain]
- IC50 [9]: 569 nM

Compound: C[C@@H]1C[C@H]2[C@@H]3CCC4=CC(=O)C=C[C@]4(C)[C@@]3(F)[C@@H](O)C[C@]2(C)[C@@]1(O)C(=O)CO [dexamethasone]
- nH [10]: 1.051

Compound: C=C[C@H]1C[N@@]2CC[C@H]1C[C@@H]2[C@@H](O)c1ccnc2ccc(OC)cc12 [Quinidine]
- nH [11]: 0.9681

Compound: N=C(N)N/N=C/c1c(Cl)cccc1Cl [guanabenz]
- nH, Specific binding [12]: 1.024

Compound: COc1cc(C(=O)OCCCN2CCCN(CCCOC(=O)c3cc(OC)c(OC)c(OC)c3)CC2)cc(OC)c1OC [Dilazep]
- nH, Specific binding [13]: 1.337

Compound: Ro 41-0960
- IC50 [14]: 23 nM

- Ki [15]: 8.4 nM
- Ki [16]: 13 nM
- Ki [17]: 7.7 ± 0.6 nM
- Ki [18]: 8.5 ± 1.2 nM
- Ki [19]: ~15 nM and 15 nM
- Ki [20]: ~15 nM and 15 nM
- Ki [21]: ~24 nM and 24 nM
- Ki [22]: 11 nM
- Ki [23]: 11 ± 1.3 nM
- Ki [26]: 16 nM
Compound: Fc1ccc2cc(-c3cnc(N4CCOCC4)nc3)[nH]c2c1 [Compound 8]
- Ki [24]: 22 nM
- Ki [25]: 18 nM
- Ki [27]: 19 nM

Compound: Cc1nc2c([nH]1)c(=O)n(C)c(=O)n2Cc1ccco1 [Furafylline]
- nH [28]: 0.9709

Compound: CCOC(=O)C1=C(C)NC(C)=C(C(=O)OC)C1c1cccc([N+](=O)[O-])c1 (stereo not drawn) [nitrendipine]
- nH, Specific binding [29]: 1.077

- Ki [15]: 11 nM
- Ki [16]: 8.9 nM
- Ki [17]: 10 nM
- Ki [18]: 11 nM
- Ki [30]: 33 nM
- Ki [31]: 37 nM
- Ki [32]: 15 nM
- Ki [33]: 40 nM
Compound: O[C@H]1CCN(c2ccc(-c3cc4ccc(F)cc4[nH]3)cn2)C1 [Compound 9, reference compound]
